Data from patent US9630922B2, “3-spiro-7-hydroxamic acid tetralins as HDAC inhibitors” (Forma Therapeutics, Inc., priority 2015, dated 2017).

Molecular target: T1, HDAC6 (Homo sapiens, UniProt Q9UBN7)
T1 construct: Full length human recombinant HDAC6 protein was expressed in baculoviral system; made in house; host or cells: baculoviral system
T1 sequence (Q9UBN7 1-1215): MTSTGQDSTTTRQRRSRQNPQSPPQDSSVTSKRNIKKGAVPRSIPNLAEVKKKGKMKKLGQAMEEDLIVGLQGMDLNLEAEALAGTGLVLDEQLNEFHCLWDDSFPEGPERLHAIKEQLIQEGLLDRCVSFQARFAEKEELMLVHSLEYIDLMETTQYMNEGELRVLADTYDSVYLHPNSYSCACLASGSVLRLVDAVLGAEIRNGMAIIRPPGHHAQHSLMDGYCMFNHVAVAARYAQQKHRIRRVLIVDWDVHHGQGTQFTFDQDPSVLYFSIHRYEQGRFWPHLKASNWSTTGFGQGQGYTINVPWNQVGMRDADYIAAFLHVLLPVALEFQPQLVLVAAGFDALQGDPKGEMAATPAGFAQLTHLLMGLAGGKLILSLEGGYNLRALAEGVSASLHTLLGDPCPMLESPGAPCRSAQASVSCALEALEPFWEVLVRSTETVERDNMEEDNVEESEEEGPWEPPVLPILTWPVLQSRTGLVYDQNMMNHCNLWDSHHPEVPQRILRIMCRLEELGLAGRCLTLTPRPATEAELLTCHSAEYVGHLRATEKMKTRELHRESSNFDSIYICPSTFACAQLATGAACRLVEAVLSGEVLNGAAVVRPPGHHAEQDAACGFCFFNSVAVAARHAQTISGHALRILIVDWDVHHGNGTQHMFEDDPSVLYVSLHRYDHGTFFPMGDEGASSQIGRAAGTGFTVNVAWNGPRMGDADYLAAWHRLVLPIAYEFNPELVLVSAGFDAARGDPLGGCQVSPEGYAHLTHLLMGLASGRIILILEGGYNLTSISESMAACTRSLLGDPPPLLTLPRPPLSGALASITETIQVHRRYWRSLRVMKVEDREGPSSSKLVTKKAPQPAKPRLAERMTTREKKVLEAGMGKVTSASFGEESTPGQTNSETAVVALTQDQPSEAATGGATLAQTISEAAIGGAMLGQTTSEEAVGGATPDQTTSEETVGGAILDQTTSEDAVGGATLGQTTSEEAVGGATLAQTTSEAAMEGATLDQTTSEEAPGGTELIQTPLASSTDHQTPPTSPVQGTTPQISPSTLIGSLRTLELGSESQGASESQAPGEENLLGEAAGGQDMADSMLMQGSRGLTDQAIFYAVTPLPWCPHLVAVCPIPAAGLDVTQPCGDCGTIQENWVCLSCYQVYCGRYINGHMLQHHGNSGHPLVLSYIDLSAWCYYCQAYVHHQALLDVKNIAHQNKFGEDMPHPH
Test: In vitro Histone Deacetylase Assay (enzymatic HDAC6 electrophoretic mobility shift assay)
Type: biochemical
Settings: full length human recombinant HDAC6, 1 nM enzyme, 2 μM peptide substrate RHKK(Ac)-NH2, 25° C.; read-out: HDAC6 activity range
Summary of the method: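 Deacetylation was read by microfluidic mobility shift as product/(substrate+product) peak ratio and normalised to 0% and 100% inhibition controls. Reactions used 1 nM baculovirus-expressed full-length human HDAC6 and 2 μM labelled RHKK(Ac)-NH2 in pH 7.5 HEPES buffer with 1% DMSO at 25 °C. IC50 was from 4-parameter fits of 12 concentrations.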

SMILES | IC50
O=C(NO)c1ccc2c(c1)CC[C@]1(CCN(Cc3ccccn3)C1=O)C2 [Compound I-52, (R)-N-hydroxy-2′-oxo-1′-(pyridin-2-ylmethyl)-3,4-dihydro-1H-spiro[naphthalene-2,3′-pyrrolidine]-6-carboxamide] | ≤ 100 nM
O=C(NO)c1ccc2c(c1)CCC1(CC(=O)N(CC(F)(F)F)C1)C2 (single isomer, unassigned) [Compound I-223] | ≤ 100 nM
O=C(NO)c1ccc2c(c1)CC[C@@]1(CCNC1=O)C2 [Compound I-28, (S)-N-hydroxy-2′-oxo-3,4-dihydro-1H-spiro[naphthalene-2,3′-pyrrolidine]-6-carboxamide] | ≤ 100 nM
CSc1cccc(N2CC[C@]3(CCc4cc(C(=O)NO)ccc4C3)C2=O)c1 [Compound I-92, (R)-N-hydroxy-1′-(3-(methylthio)phenyl)-2′-oxo-3,4-dihydro-1H-spiro[naphthalene-2,3′-pyrrolidine]-6-carboxamide] | ≤ 100 nM
O=C(NO)c1ccc2c(c1)CC[C@]1(CCN(Cc3ccc4nonc4c3)C1=O)C2 [Compound I-42, (R)-1′-(benzo[c][1,2,5]oxadiazol-5-ylmethyl)-N-hydroxy-2′-oxo-3,4-dihydro-1H-spiro[naphthalene-2,3′-pyrrolidine]-6-carboxamide] | ≤ 100 nM
COc1ccccc1N1CC[C@@]2(CCc3cc(C(=O)NO)ccc3C2)C1=O [Compound I-115, (S)-N-hydroxy-1′-(2-methoxyphenyl)-2′-oxo-3,4-dihydro-1H-spiro[naphthalene-2,3′-pyrrolidine]-6-carboxamide] | ≤ 100 nM
O=C(NO)c1ccc2c(c1)CCC1(CCN(c3nc4ccccc4[nH]3)C1=O)C2 (stereo not shown) [Compound I-5, 1′-(1H-benzo[d]imidazol-2-yl)-N-hydroxy-2′-oxo-3,4-dihydro-1H-spiro[naphthalene-2,3′-pyrrolidine]-6-carboxamide] | ≤ 100 nM
O=C(NO)c1ccc2c(c1)CC[C@]1(CCN(Cc3cnc(O)s3)C1=O)C2 [Compound I-31, (R)-N-hydroxy-1′-((2-hydroxythiazol-5-yl)methyl)-2′-oxo-3,4-dihydro-1H-spiro[naphthalene-2,3′-pyrrolidine]-6-carboxamide] | ≤ 100 nM
CC(C)N1CC[C@@]2(CCc3cc(C(=O)NO)ccc3C2)C1=O [Compound I-25, (S)-N-hydroxy-1′-isopropyl-2′-oxo-3,4-dihydro-1H-spiro[naphthalene-2,3′-pyrrolidine]-6-carboxamide] | ≤ 100 nM
O=C(NO)c1ccc2c(c1)CC[C@]1(CCN(c3ccncc3Cl)C1=O)C2 [Compound I-140, (R)-1′-(3-chloropyridin-4-yl)-N-hydroxy-2′-oxo-3,4-dihydro-1H-spiro[naphthalene-2,3′-pyrrolidine]-6-carboxamide] | ≤ 100 nM
COc1ccc(S(=O)(=O)N2CCC3(CCc4cc(C(=O)NO)ccc4O3)CC2)cc1 [II-5, N-hydroxy-1′-((4-methoxyphenyl)sulfonyl)spiro[chromane-2,4′-piperidine]-6-carboxamide] | > 500 nM
O=C(NO)c1ccc2c(c1)CC[C@@]1(CCN(c3ccc(F)c(F)c3)C1=O)C2 [Compound I-155, (S)-1′-(3,4-difluorophenyl)-N-hydroxy-2′-oxo-3,4-dihydro-1H-spiro[naphthalene-2,3′-pyrrolidine]-6-carboxamide] | ≤ 100 nM
COc1cccc(N2CC[C@@]3(CCc4cc(C(=O)NO)ccc4C3)C2=O)c1 [Compound I-158, (S)-N-hydroxy-1′-(3-methoxyphenyl)-2′-oxo-3,4-dihydro-1H-spiro[naphthalene-2,3′-pyrrolidine]-6-carboxamide] | ≤ 100 nM
O=C(NO)c1ccc2c(c1)CC[C@]1(CCN(CC3CCC3)C1=O)C2 [Compound I-33, (R)-1′-(cyclobutylmethyl)-N-hydroxy-2′-oxo-3,4-dihydro-1H-spiro[naphthalene-2,3′-pyrrolidine]-6-carboxamide] | ≤ 100 nM
O=C(NO)c1ccc2c(c1)CC[C@@]1(CCN(Cc3ccc(OC(F)(F)F)cc3)C1=O)C2 [Compound I-80, (S)-N-hydroxy-2′-oxo-1′-(4-(trifluoromethoxy)benzyl)-3,4-dihydro-1H-spiro[naphthalene-2,3′-pyrrolidine]-6-carboxamide] | 100 to 500 nM
O=C(NO)c1ccc2c(c1)CCC1(CCNC1=O)S2(=O)=O (stereo not shown) [Compound I-243, N-hydroxy-2-oxospiro[pyrrolidine-3,2′-thiochromane]-6′-carboxamide 1′,1′-dioxide] | > 500 nM
O=C(NO)c1ccc2c(c1)CCC1(CCN(c3ccccc3)C1=O)O2 (stereo not shown) [Compound I-231, N-hydroxy-2′-oxo-1′-phenylspiro[chromane-2,3′-pyrrolidine]-6-carboxamide] | 100 to 500 nM
CC(C)(C)Nc1cc(N2CC[C@]3(CCc4cc(C(=O)NO)ccc4C3)C2=O)ncn1 [Compound I-97, (R)-1′-(6-(tert-butylamino)pyrimidin-4-yl)-N-hydroxy-2′-oxo-3,4-dihydro-1H-spiro[naphthalene-2,3′-pyrrolidine]-6-carboxamide] | ≤ 100 nM
O=C(NO)c1ccc2c(c1)CC[C@]1(CCN(C3CC3)C1=O)C2 [Compound I-109, (R)-1′-cyclopropyl-N-hydroxy-2′-oxo-3,4-dihydro-1H-spiro[naphthalene-2,3′-pyrrolidine]-6-carboxamide] | ≤ 100 nM
O=C(NO)c1ccc2c(c1)CC[C@@]1(CCN(Cc3c(Cl)cccc3Cl)C1=O)C2 [Compound I-75, (S)-1′-(2,6-dichlorobenzyl)-N-hydroxy-2′-oxo-3,4-dihydro-1H-spiro[naphthalene-2,3′-pyrrolidine]-6-carboxamide] | 100 to 500 nM
COc1ccc(N2CC[C@]3(CCc4cc(C(=O)NO)ccc4C3)C2=O)cc1F [Compound I-90, (R)-1′-(3-fluoro-4-methoxyphenyl)-N-hydroxy-2′-oxo-3,4-dihydro-1H-spiro[naphthalene-2,3′-pyrrolidine]-6-carboxamide] | ≤ 100 nM
O=C(NO)c1ccc2c(c1)CCC1(CC(=O)N(c3cccnc3)C1)C2 (single isomer, unassigned) [Compound I-224] | ≤ 100 nM
O=C(NO)c1ccc2c(c1)CC[C@@]1(CCN(Cc3ccc(S(=O)(=O)C(F)(F)F)cc3)C1=O)C2 [Compound I-107, (S)-N-hydroxy-2′-oxo-1′-(4-((trifluoromethyl)sulfonyl)benzyl)-3,4-dihydro-1H-spiro[naphthalene-2,3′-pyrrolidine]-6-carboxamide] | 100 to 500 nM
COc1ncccc1N1CC[C@]2(CCc3cc(C(=O)NO)ccc3C2)C1=O [Compound I-145, (R)-N-hydroxy-1′-(2-methoxypyridin-3-yl)-2′-oxo-3,4-dihydro-1H-spiro[naphthalene-2,3′-pyrrolidine]-6-carboxamide] | ≤ 100 nM
O=C(NO)c1ccc2c(c1)CC[C@@]1(CCN(c3cccc(F)c3)C1=O)C2 [Compound I-117, (S)-1′-(3-fluorophenyl)-N-hydroxy-2′-oxo-3,4-dihydro-1H-spiro[naphthalene-2,3′-pyrrolidine]-6-carboxamide] | ≤ 100 nM
O=C(NO)c1ccc2c(c1)CCC1(CCN(Cc3ccccc3)C1=O)S2(=O)=O (stereo not shown) [Compound I-239, 1-benzyl-N-hydroxy-2-oxospiro[pyrrolidine-3,2′-thiochromane]-6′-carboxamide 1′,1′-dioxide] | 100 to 500 nM
O=C(NO)c1ccc2c(c1)CC[C@@]1(CCN(Cc3cccnc3)C1=O)C2 [Compound I-19, (S)-N-hydroxy-2′-oxo-1′-(pyridin-3-ylmethyl)-3,4-dihydro-1H-spiro[naphthalene-2,3′-pyrrolidine]-6-carboxamide] | ≤ 100 nM
O=C(NO)c1ccc2c(c1)CC[C@]1(CCN(Cc3ccc(S(=O)(=O)C(F)(F)F)cc3)C1=O)C2 [Compound I-106, (R)-N-hydroxy-2′-oxo-1′-(4-((trifluoromethyl)sulfonyl)benzyl)-3,4-dihydro-1H-spiro[naphthalene-2,3′-pyrrolidine]-6-carboxamide] | ≤ 100 nM
